Reference: ChEMBL document CHEMBL5346952, “Dimer Peptide Ligands of Vascular Endothelial Growth Factor: Optimizing Linker Length for High Affinity and Antiangiogenic Activity” (J Med Chem, 2023)
pKd: −log10 of the molar value. Starred links: 1 amine or outer side, 2 acyl side, 3 side chain; linkers in the order of their positions; H or OH if unused. Positions of bridges follow the written chain, without caps; N, C: chain ends. Residues, ends and D or L forms follow the SMILES beside them. Chains are numbered I, II in the order given. *: point of attachment. CO(CH2)2(OCH2CH2)17CO = O=C(CCOCCOCCOCCOCCOCCOCCOCCOCCOCCOCCOCCOCCOCCOCCOCCOCCOCCC(=O)[*:2])[*:1]; X2 = O=C(O)CCOCCOCCOCCOCCOCCOCCOCCOCCOCCOCCOCCOCCOCCOCCOCCOCCOCCOCCOCCOCCOCCOCCOCCOCCOCCC(=O)*; CO(CH2CH2O)13CH2CH2CO = O=C(CCOCCOCCOCCOCCOCCOCCOCCOCCOCCOCCOCCOCCOCCC(=O)[*:2])[*:1]; CO(CH2CH2O)5CH2CH2CO = O=C(CCOCCOCCOCCOCCOCCC(=O)[*:2])[*:1]

How the values were obtained:
HUVEC [1] = experiment: Antiangiogenic activity in human HUVEC cells assessed as inhibition of VEGFA-induced capillary tube formation incubated for 6 hrs by matrigel based microscopic analysis; assay type: functional, cell-based
HUVEC [2] = experiment: Antiangiogenic activity in human HUVEC cells assessed as inhibition of VEGFA-induced cell migration incubated for 12 hrs by wound healing assay; assay type: functional, cell-based
[3] = target: T1, Vascular endothelial growth factor A, long form (Homo sapiens) (UniProt P15692); experiment: Binding affinity to human VEGF (13 to 107 residues) expressed in Escherichia coli Rosetta (DE3) cells assessed as change in entropy at 37 degreeC by isothermal titration calorimetry analysis
T1 sequence (whole entry): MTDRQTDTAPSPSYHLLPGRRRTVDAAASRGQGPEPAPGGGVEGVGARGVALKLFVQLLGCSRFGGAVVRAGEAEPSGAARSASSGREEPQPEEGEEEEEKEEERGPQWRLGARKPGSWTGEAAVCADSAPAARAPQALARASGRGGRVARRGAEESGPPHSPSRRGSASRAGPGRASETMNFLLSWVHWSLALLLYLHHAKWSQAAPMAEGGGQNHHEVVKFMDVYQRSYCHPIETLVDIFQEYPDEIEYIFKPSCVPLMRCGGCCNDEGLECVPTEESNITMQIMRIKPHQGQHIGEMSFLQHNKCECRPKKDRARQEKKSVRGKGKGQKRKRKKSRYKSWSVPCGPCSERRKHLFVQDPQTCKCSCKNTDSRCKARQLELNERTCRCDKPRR

[4] = target: T1, Vascular endothelial growth factor A, long form (Homo sapiens); experiment: Binding affinity to human VEGF (13 to 107 residues) expressed in Escherichia coli Rosetta (DE3) cells assessed as change in enthalpy at 20 degreeC by isothermal titration calorimetry analysis
[5] = target: T2, Vascular endothelial growth factor A, long form (Homo sapiens, UniProt P15692); experiment: Binding affinity to human VEGF (13 to 107 residues) expressed in Escherichia coli Rosetta (DE3) cells assessed as dissociation constant at 20 degreeC by isothermal titration calorimetry analysis
T2 sequence (P15692 whole entry): T1 sequence (whole entry)

[6] = target: T2, Vascular endothelial growth factor A, long form; experiment: Binding affinity to human VEGF (13 to 107 residues) expressed in Escherichia coli Rosetta (DE3) cells assessed as dissociation constant at 37 degreeC by isothermal titration calorimetry analysis
[7] = target: T1, Vascular endothelial growth factor A, long form (Homo sapiens); experiment: Binding affinity to human VEGF (13 to 107 residues) expressed in Escherichia coli Rosetta (DE3) cells assessed as change in entropy at 20 degreeC by isothermal titration calorimetry analysis
[8] = target: T1, Vascular endothelial growth factor A, long form (Homo sapiens); experiment: Binding affinity to human VEGF (13 to 107 residues) expressed in Escherichia coli Rosetta (DE3) cells assessed as change in heat capacity at 20 degreeC by isothermal titration calorimetry analysis
[9] = target: T1, Vascular endothelial growth factor A, long form (Homo sapiens); experiment: Binding affinity to human VEGF (13 to 107 residues) expressed in Escherichia coli Rosetta (DE3) cells assessed as Gibbs free energy change at 20 degreeC by isothermal titration calorimetry analysis
[10] = target: T1, Vascular endothelial growth factor A, long form (Homo sapiens); experiment: Binding affinity to human VEGF (13 to 107 residues) expressed in Escherichia coli Rosetta (DE3) cells assessed as change in enthalpy at 37 degreeC by isothermal titration calorimetry analysis
[11] = target: T1, Vascular endothelial growth factor A, long form (Homo sapiens); experiment: Binding affinity to human VEGF (13 to 107 residues) expressed in Escherichia coli Rosetta (DE3) cells assessed as Gibbs free energy change at 37 degreeC by isothermal titration calorimetry analysis

-TdeltaS [3] [kcal/mol]	deltaH [4] [kcal/mol]	pKd [5]	pKd [6]	-TdeltaS [7] [kcal/mol]	DeltaCp [8] [kcal/mol/K]	deltaG [9] [kcal/mol]	deltaH [10] [kcal/mol]	deltaG [11] [kcal/mol]	SMILES	Activity (HUVEC [1])	Activity (HUVEC [2])
16.2	-19.5	7.30	6.57	9.66	-0.36	-9.79	-25.5	-9.32	CC[C@H](C)[C@@H]1NC(=O)[C@H](CC(=O)O)NC(=O)[C@@H](NC(C)=O)CSSC[C@@H]2NC(=O)[C@H](CCCCNC(=O)C[C@@H](C(=O)N[C@@H](CC(C)C)C(N)=O)NC(=O)[C@H](CCC(=O)O)NC(=O)[C@H](Cc3ccccc3)NC2=O)NC(=O)[C@H](Cc2c[nH]c3ccccc23)NC(=O)[C@H](CCC(=O)O)NC(=O)[C@H](Cc2c[nH]c3ccccc23)NC(=O)[C@H](CCCCNC(C)=O)NC(=O)[C@H](C(C)C)NC(=O)[C@H](Cc2cnc[nH]2)NC1=O (Ac-CDIHVK(Ac)WEWKCFEDL-NH2; disulfide 1-11; lactam 10-14)	Dose-Dependent Effect	Dose-Dependent Effect
15.5	-18.6	6.80	5.99	9.51	-0.31	-9.12	-24	-8.5	CC[C@H](C)[C@@H]1NC(=O)[C@H](CC(=O)O)NC(=O)[C@@H](NC(C)=O)CSSC[C@@H]2NC(=O)[C@H](CCCCNC(=O)C[C@@H](C(=O)N[C@@H](CC(C)C)C(N)=O)NC(=O)[C@H](CCC(=O)O)NC(=O)[C@H](Cc3ccccc3)NC2=O)NC(=O)[C@H](Cc2c[nH]c3ccccc23)NC(=O)[C@H](CCC(=O)O)NC(=O)[C@H](Cc2c[nH]c3ccccc23)NC(=O)[C@H](CCCCNC(=O)CCOCCOCCOCCOCCOCCOCCOCCOCCOCCOCCOCCOCCOCCOCCOCCOCCOCCOCCOCCOCCOCCOCCOCCOCCOCCC(=O)O)NC(=O)[C@H](C(C)C)NC(=O)[C@H](Cc2cnc[nH]2)NC1=O (Ac-CDIHVK(X2)WEWKCFEDL-NH2; disulfide 1-11; lactam 10-14)	Dose-Dependent Effect	Dose-Dependent Effect
35.7	-36.3	7.70	7.25	26	-0.57	-10.3	-46	-10.3	CC[C@H](C)[C@@H]1NC(=O)[C@H](CC(=O)O)NC(=O)[C@@H](NC(C)=O)CSSC[C@@H]2NC(=O)[C@H](CCCCNC(=O)C[C@@H](C(=O)N[C@@H](CC(C)C)C(N)=O)NC(=O)[C@H](CCC(=O)O)NC(=O)[C@H](Cc3ccccc3)NC2=O)NC(=O)[C@H](Cc2c[nH]c3ccccc23)NC(=O)[C@H](CCC(=O)O)NC(=O)[C@H](Cc2c[nH]c3ccccc23)NC(=O)[C@H](CCCCNC(=O)CCOCCOCCOCCOCCOCCOCCOCCOCCOCCOCCOCCOCCOCCC(=O)NCCCC[C@@H]2NC(=O)[C@H](C(C)C)NC(=O)[C@H](Cc3cnc[nH]3)NC(=O)[C@H]([C@@H](C)CC)NC(=O)[C@H](CC(=O)O)NC(=O)[C@@H](NC(C)=O)CSSC[C@@H]3NC(=O)[C@H](CCCCNC(=O)C[C@@H](C(=O)N[C@@H](CC(C)C)C(N)=O)NC(=O)[C@H](CCC(=O)O)NC(=O)[C@H](Cc4ccccc4)NC3=O)NC(=O)[C@H](Cc3c[nH]c4ccccc34)NC(=O)[C@H](CCC(=O)O)NC(=O)[C@H](Cc3c[nH]c4ccccc34)NC2=O)NC(=O)[C@H](C(C)C)NC(=O)[C@H](Cc2cnc[nH]2)NC1=O (I: Ac-CDIHVKWEWKCFEDL-NH2 / II: Ac-CDIHVKWEWKCFEDL-NH2; disulfide I:1-I:11, II:1-II:11; linker I:6-II:6 via CO(CH2CH2O)13CH2CH2CO; lactam I:10-I:14, II:10-II:14)		
37.9	-38.1	7.66	7.29	27.9	-0.6	-10.3	-48.3	-10.4	CC[C@H](C)[C@@H]1NC(=O)[C@H](CC(=O)O)NC(=O)[C@@H](NC(C)=O)CSSC[C@@H]2NC(=O)[C@H](CCCCNC(=O)C[C@@H](C(=O)N[C@@H](CC(C)C)C(N)=O)NC(=O)[C@H](CCC(=O)O)NC(=O)[C@H](Cc3ccccc3)NC2=O)NC(=O)[C@H](Cc2c[nH]c3ccccc23)NC(=O)[C@H](CCC(=O)O)NC(=O)[C@H](Cc2c[nH]c3ccccc23)NC(=O)[C@H](CCCCNC(=O)CCOCCOCCOCCOCCOCCOCCOCCOCCOCCOCCOCCOCCOCCOCCOCCOCCOCCC(=O)NCCCC[C@@H]2NC(=O)[C@H](C(C)C)NC(=O)[C@H](Cc3cnc[nH]3)NC(=O)[C@H]([C@@H](C)CC)NC(=O)[C@H](CC(=O)O)NC(=O)[C@@H](NC(C)=O)CSSC[C@@H]3NC(=O)[C@H](CCCCNC(=O)C[C@@H](C(=O)N[C@@H](CC(C)C)C(N)=O)NC(=O)[C@H](CCC(=O)O)NC(=O)[C@H](Cc4ccccc4)NC3=O)NC(=O)[C@H](Cc3c[nH]c4ccccc34)NC(=O)[C@H](CCC(=O)O)NC(=O)[C@H](Cc3c[nH]c4ccccc34)NC2=O)NC(=O)[C@H](C(C)C)NC(=O)[C@H](Cc2cnc[nH]2)NC1=O (I: Ac-CDIHVKWEWKCFEDL-NH2 / II: Ac-CDIHVKWEWKCFEDL-NH2; disulfide I:1-I:11, II:1-II:11; linker I:6-II:6 via CO(CH2)2(OCH2CH2)17CO; lactam I:10-I:14, II:10-II:14)		
36.4	-37.7	7.74	7.05	27.3	-0.51	-10.4	-46.4	-10	CC[C@H](C)[C@@H]1NC(=O)[C@H](CC(=O)O)NC(=O)[C@@H](NC(C)=O)CSSC[C@@H]2NC(=O)[C@H](CCCCNC(=O)C[C@@H](C(=O)N[C@@H](CC(C)C)C(N)=O)NC(=O)[C@H](CCC(=O)O)NC(=O)[C@H](Cc3ccccc3)NC2=O)NC(=O)[C@H](Cc2c[nH]c3ccccc23)NC(=O)[C@H](CCC(=O)O)NC(=O)[C@H](Cc2c[nH]c3ccccc23)NC(=O)[C@H](CCCCNC(=O)CCOCCOCCOCCOCCOCCC(=O)NCCCC[C@@H]2NC(=O)[C@H](C(C)C)NC(=O)[C@H](Cc3cnc[nH]3)NC(=O)[C@H]([C@@H](C)CC)NC(=O)[C@H](CC(=O)O)NC(=O)[C@@H](NC(C)=O)CSSC[C@@H]3NC(=O)[C@H](CCCCNC(=O)C[C@@H](C(=O)N[C@@H](CC(C)C)C(N)=O)NC(=O)[C@H](CCC(=O)O)NC(=O)[C@H](Cc4ccccc4)NC3=O)NC(=O)[C@H](Cc3c[nH]c4ccccc34)NC(=O)[C@H](CCC(=O)O)NC(=O)[C@H](Cc3c[nH]c4ccccc34)NC2=O)NC(=O)[C@H](C(C)C)NC(=O)[C@H](Cc2cnc[nH]2)NC1=O (I: Ac-CDIHVKWEWKCFEDL-NH2 / II: Ac-CDIHVKWEWKCFEDL-NH2; disulfide I:1-I:11, II:1-II:11; linker I:6-II:6 via CO(CH2CH2O)5CH2CH2CO; lactam I:10-I:14, II:10-II:14)	Dose-Dependent Effect	Dose-Dependent Effect
